{"source": "patent US8377651B2", "about": "“Method for detecting Escherichia coli” (Systagenix Wound Management (US), Inc., priority 2003, dated 2013)", "key": {"E. coli cultures": {"system": "E. coli cultures", "assay": "Biosensor: his-tagged peptide linked to nickel binding resin exposed to cultures", "format": "cell-based, Escherichia coli", "conditions": "E. coli cultures versus BHI media without bacteria", "description": "Metal chelate (affinity binding) interactions can provide a stronger bond to biological molecules. A his-tag built into the peptide substrate, for example T4 can be used to allow linkage to a nickel binding resin. The resin is incubated with a suitable culture, for example, E. coli for 30 minutes at 37° C. After centrifugation the buffer is removed and the pelleted resin is imaged. The fluorescence produced by the peptide is then detected."}, "E. coli [1]": {"system": "E. coli", "assay": "Protease assay with modified (lysine-tagged) substrate and bacterial cultures", "format": "cell-based, Escherichia coli", "conditions": "cultures of Pseudomonas, S. aureus, S. epidermidis, S. salivarius, S. pyogenes, Enterococcus, Serratia, 37° C., FIG. 5", "description": "The protease assay, described herein for detection of E. colt was run with the modified version of T2, T3. Bacteria (Pseudomonas, E. coli, S. aureus, S. epidermidis, S. salivarius, S. pyogenes, Enterococcus, and Serratia) were grown in an incubator overnight at 37° C. in 5 mL BHI (Brain Heart Infusion) media. The assays were run in 20 mM tris buffer (pH 7.4) with 150 mM NaCl added. The reaction was carried out with 7 μL of culture including cells and media and […] (5 mg/mT, in water) in 100 μL total volume at 37° C. The reaction was followed on a fluorimetric plate reader using an excitation wavelength of 355 nm and an emission wavelength of 485 nm."}, "E. coli cells [2]": {"system": "E. coli cells", "assay": "Protease assay in simulated wound fluid buffer (5% bovine serum albumin)", "format": "cell-based, Escherichia coli", "conditions": "tris-buffered saline plus 5% (by weight) bovine serum albumin, FIG. 4", "description": "(§1) The bacteria were grown in an incubator overnight at 37° C. in 5 mL BHT (Brain Heart Infusion) media. Each of the resulting cultures was split into two samples. One was used as a culture, and the other was spun down by centrifugation and the supernatant was collected. The assays were run in 20 mM tris buffer (pH 7.4) with 150 mM NaCl added. The reaction was carried out with 5 μL of culture or supernatant and 5 μL of peptide substrate (10 mg/mL in water) in 100 μL total volume at 37° C. The reaction was followed on a fluorimetric plate reader using an excitation wavelength of 355 nm and an emission wavelength of 485 nm.\nThe protease assay was also tested in a simulated wound fluid buffer. The buffer was tris-buffered saline, as described above, to which 5% (by weight) bovine serum albumin was added. The protease assay was repeated, again using the 12 peptide substrate."}, "[3]": {"system": "secreted protease from E. coli", "assay": "Protease assay with bacterial culture supernatants", "format": "biochemical, Escherichia coli", "conditions": "for protease activity with culture supernatant: E. coli culture supernatant", "description": "as §1\n(§2) To test whether the protease is membrane associated, as expected for E. coli OmpT, the protease assays were repeated with the supernatants obtained from each bacterial culture."}, "[4]": {"system": "secreted protease from any of the other bacteria tested", "assay": "Protease assay with bacterial culture supernatants", "format": "biochemical", "description": "as §1, §2"}, "E. coli [5]": {"system": "E. coli", "assay": "Protease assay in reaction buffer with 5% fetal bovine serum", "format": "cell-based, Escherichia coli", "conditions": "buffer plus 5% fetal bovine serum; FIG. 3", "description": "as §1\nThe 12 peptide substrate was further tested for cross reactivity with the types of conditions and molecules that may be present in a wound environment. A fluid that may be present in a wound, at least initially, is serum. In order to test for reactivity with serum the reaction buffer was modified to by addition 5% fetal bovine serum and the protease assay was repeated, using the 12 peptide substrate."}, "E. coli cells [6]": {"system": "E. coli cells", "assay": "Protease assay, labeled peptide substrate with bacterial culture (cells and media)", "format": "cell-based, Escherichia coli", "conditions": "for protease activity / cleavage of substrate (relative fluorescence): E. coli culture incl. cells and media, 20 mM tris pH 7.4, 150 mM NaCl, 37° C., ex 355 nm, em 485 nm, FIG. 1, 2", "description": "(§3) The peptide substrates used here were labeled with the fluorescent probe edans (5((2-aminoethyl)amino)naphthalene-1-sulfonic acid) and the quencher dye molecule dabcyl ((4-(4-(dimethylamino)phenyl)azo)benzoic acid). The labeled peptides ecot1 (T1) and ecot2 (T2) sequences used are as follows:\nas §1\n(§4) The first set of experiments was performed by addition of the bacterial culture directly into the assay solution. The protease OmpT is a membrane bound protein and would not be expected to be found secreted into the media. The first assay to be run used the peptide ecot1(T1) as substrate."}, "[7]": {"system": "protease from Pseudomonas secreted into solution", "assay": "Protease assay with bacterial culture supernatants", "format": "biochemical", "description": "as §1, §2"}, "Pseudomonas": {"system": "Pseudomonas", "assay": "Protease assay, labeled peptide substrate with bacterial culture (cells and media)", "format": "cell-based", "conditions": "Pseudomonas culture incl. cells and media; 20 mM tris pH 7.4, 150 mM NaCl, 37° C.; FIG. 1", "description": "as §3, §1, §4"}}, "note": "Primed or numbered codes have the meaning given here. No end group written: not given here. *: point of attachment. Dabcyl″ = CN(C)c1ccc(/N=N/c2ccc(C(=O)*)cc2)cc1; EDANS = O=S(=O)(O)c1cccc2c(NCCN*)cccc12; Dabcyl′ = not defined here"}
{"substance": "CHHHAS(E-edans)VSRRRRRGG(K-dabcyl) [T4]", "values": [{"measurement": "detection of E. coli by resin-bound peptide fluorescence", "setting": "E. coli cultures", "result": "E. coli was detected"}]}
{"substance": "KKAS(E-edans)VSRRRRRGG(K-dabcyl) (chain 1 KKASE(EDANS); chain 2 VSRRRRRGGK(Dabcyl″); not fully specified; printed as KKAS(E-edans)VSRRRRRGG(K-dabcyl)) [T3]", "values": [{"measurement": "specificity of assay among bacteria (cleavage, relative fluorescence over time)", "setting": "E. coli [1]", "result": "specific for E. coli"}]}
{"substance": "Dabcyl - KVSRRRRRGGD - Edans [T2]", "values": [{"measurement": "protease reactivity in simulated wound fluid", "setting": "E. coli cells [2]", "result": "not affected by the simulated wound fluid buffer"}, {"measurement": "selectivity and speed as probe in simulated wound fluid", "setting": "E. coli cells [2]; various bacteria", "result": "rapid and selective probe for the detection of E. coli cells"}, {"measurement": "protease activity with culture supernatant", "setting": "[3]", "result": "did not show any reactivity"}, {"measurement": "selectivity for membrane bound protease OmpT", "setting": "[3]; conclusion from culture versus supernatant assays", "result": "selective for the E. coli outer membrane protease OmpT"}, {"measurement": "reactivity with secreted protease, culture supernatants", "setting": "[4]", "result": "did not show any reactivity"}, {"measurement": "detection of E. coli in presence of serum (cleavage, relative fluorescence)", "setting": "E. coli [5]", "result": "detection of the presence of E. coli in the E. coli sample occurred"}, {"measurement": "protease activity / cleavage of substrate (relative fluorescence)", "setting": "E. coli cells [6]", "result": "reacted with this substrate"}, {"measurement": "selectivity of substrate among the bacteria tested", "setting": "E. coli cells [6]; cultures of various bacteria incl. cells and media, FIG. 2", "result": "efficient and selective for E. coli"}]}
{"substance": "Edans - DSRPVRRRRRPRVSK - Dabcyl (Edans-DSRPVRRRRRPRVSK-{Dabcyl′}) [T1]", "values": [{"measurement": "protease activity with culture supernatant", "setting": "[3]", "result": "not present in the supernatant"}, {"measurement": "protease activity with culture supernatant", "setting": "[7]", "result": "still present"}, {"measurement": "protease activity / cleavage of substrate (relative fluorescence)", "setting": "E. coli cells [6]", "result": "protease activity was observed"}, {"measurement": "protease activity / cleavage of substrate (relative fluorescence)", "setting": "Pseudomonas", "result": "protease activity was observed"}]}
